Results taken from patent EP4512403A1, “NEUROPEPTIDE B AND W-RECEPTOR AS A TARGET FOR TREATING MOOD DISORDERS AND/OR CHRONIC STRESS” (Friedrich-Schiller-Universität Jena, priority 2023, dated 2025).
“Also recorded” adds a separate entry of the source.

Key:
Per2 = test: qPCR of circadian gene Per2 after microinfusion into the NAc; format: in vivo, mice; settings: 1nmolar NPB or 1 µmolar CYM50769 into NAc, tissue 24 h later
Source text: (§1) RNA purification and quantification. […] RNA was washed in isopropanol and 75% Ethanol. […] Primer sequences are listed in the supplementary material. Quantitative PCR results were processed as described ^22.
(§2) AAVs, stereotaxic surgery and microinjection.

Bdnf = Bdnf qPCR after microinfusion of Npbwr1 ligands into the NAc; format: in vivo, mice
Source text: as §1, §2

mice [1] = test: Tests for depressive-like behavior (forced swim, splash, sucrose preference) 24 h after ligand microinjection; format: in vivo; settings: 24 h later; for behavioral effects of CVS: CVS mice, 1 nM NPB or 1 µM CYM50769 into NAc after last stress session; for depressive-like behaviors: naïve mice, 1 nM NPB or 1 µM CYM50769 into NAc
Experimental: as §2
(§3) Behavioral tests and CVS. The acute behavioral tests forced swim test, tail suspension test, sucrose preference, splash test and novelty suppressed feeding were performed as described ^13,23. After CVS, no tail suspension test was conducted, as tail suspension is part of the stress-induction protocol. For CVS-groups, caffeine was injected at the last day of CVS (day 21), just prior to the stressor. The CVS-protocol was performed as described ^13. […] Stressors consist of one hour of either, tube restraint, tail suspension or 100 mild electric random […]. If only female experimenters were present, a used male t-shirt was wrapped in clean protective clothing from the animal unit and placed into the experimental room in order to avoid variability due to sex-specific scents of the scientists ^24. All experiments were conducted in the light phase of the light-cycle to allow comparability with previous experiments ^22.
Next, the rapid effects of Npbwr1 activity were tested on depressive-like behaviors in vivo. To that end, mice underwent CVS and were microinjected with 1 nM NPB and 1 µm CYM50769 after the last session of stress induction. Behavioral tests were conducted 24 h later. […] In contrast, CYM50769 had no effects in naïve mice.

mice [2] = test: Forced swim test after CVS and ligand microinfusion; format: in vivo; settings: naive mice; 1 nM NPB or 1 µM CYM50769 into NAc; tested app. 24 h later
Experimental: as §2, §3

mice [3] = test: Splash test after CVS and ligand microinfusion; format: in vivo; settings: naive mice; tested app. 24 h after microinfusion
Experimental: as §2, §3

mouse brain = settings: intracerebroventricular injection; reference 15; cited from earlier work
mice [4] = test: Sucrose preference after CVS and ligand microinfusion; format: in vivo; settings: tested app. 24 h after microinfusion
Experimental: as §2, §3

Npbwr1 = Npbwr1 expression in NAc after caffeine (RNA-sequencing, qPCR); format: in vivo, mice
Source text: as §1
(§4) Next-generation RNA-sequencing. An in-house RNA-sequencing analysis pipeline was applied as described ^25. After artificial depletion of ribosomal RNA (rRNA) transcripts from the data set, more than 90% of reads aligned to the reference genome GRCm38, indicating excellent sample quality. Only changes that reached an adjusted P-value < 0.05 and a log2FC 0.5 <> - 0.5 were further considered.
(§5) To determine caffeine-regulate transcripts, next-generation RNA-sequencing 2h after caffeine-injection on NAc of wildtype (WT) and T75A mice were performed. Tissue was collected at four time points along the diurnal clock ^14. As expected, significant changes in circadian markers were observed, which oscillated in the expected manner across the four measured time points (Per1, Per2, Cry1, Bmal), both in WT and T75A-DARPP-32 mutant mice (Figure 3). […] Altered transcripts belonged to a variety of cellular signaling pathways, including synaptic transmission, transcriptional regulation and hormonal signaling (Figure 4C).

NAc dendritic spines = test: NAc dendritic spine analysis after CVS and caffeine; format: in vivo, mice
Source text: as §2
Dendritic spine analysis. The analysis was based on detecting the AAVs' GFP-fluorophores. Photos of 40 µm PFA-fixed brain sections were taken with a Zeiss LSM 880 confocal microscope using the AiryScan method. Maximum intensity projections were obtained using Zen Black and Zen Blue software and analysed in NeuronStudio (CNIC, Mount Sinai School of Medicine). The total density of spines, proportions of thin, mushroom and stubby spines as well as the cumulative neck-length were determined in Graph Prism. Neck-containing mushroom density refer to the sum of thin and mushroom spine densities.

circadian genes = test: Read-counts of circadian genes (Per1, Per2, Cry, Bmal) after caffeine; format: in vivo, mice; settings: normalized read-counts for Per1, Per2, Cry, 2h after caffeine
Experimental: as §4, §5

mice [5] = settings: both sexes; reference 14; cited from earlier work
mice [6] = test: Behavioral tests after chronic variable stress (CVS), 24h after caffeine; format: in vivo; settings: female mice after CVS, 7.5 mg/kg caffeine i.p., tested 24h later
Experimental: as §3

mice [7] = test: Escape behavior tests in naive WT and T75A mice 24h after caffeine; format: in vivo; settings: naïve WT mice; 7.5 mg/kg caffeine in the dark phase; tested 24h later
Experimental: as §3

[8] = tested on: NAc of wildtype (WT) and DARPP-32-T75A mutant mice; test: RNA-sequencing of NAc 2h after caffeine injection; format: in vivo; settings: active and inactive phases
Experimental: as §4, §5

mice [9] = test: Forced swim test after CVS and ligand microinfusion; format: in vivo; settings: microinfused after last stress induction, tested app. 24 h later
Experimental: as §3, with “Drugs” for “Behavioral tests”, “chemicals. […]” for “CVS. The acute behavioral tests forced swim test, tail suspension test, sucrose preference, splash test and novelty suppressed feeding were performed as described ^13,23.”, “For CVS-groups, caffeine was injected at the last day of CVS (day 21), just prior to the stressor.” left out

mice [10] = test: Splash test after CVS and ligand microinfusion; format: in vivo; settings: tested app. 24 h after microinfusion
Experimental: as §3, with “Drugs” for “Behavioral tests”, “chemicals. […]” for “CVS. The acute behavioral tests forced swim test, tail suspension test, sucrose preference, splash test and novelty suppressed feeding were performed as described ^13,23.”, “For CVS-groups, caffeine was injected at the last day of CVS (day 21), just prior to the stressor.” left out

Bcl2 = test: qPCR of apoptosis marker Bcl2 after microinfusion into the NAc; format: in vivo, mice; settings: 1nmolar NPB or 1 µmolar CYM50769 into NAc, tissue 24 h later
Source text: as §1, §2

Casp3 = test: qPCR of apoptosis marker Casp3 after microinfusion into the NAc; format: in vivo, mice; settings: 1nmolar NPB or 1 µmolar CYM50769 into NAc, tissue 24 h later
Source text: as §1, §2

mice [11] = settings: acute microinfusion into NAc
Experimental: Drugs and chemicals. Mice were intraperitoneally (i.p.) injected with 7.5 mg/kg caffeine (#, C0750, Sigma) or saline at an injection volume of 10ml/kg body weight and tested 2 or 24 h later.
In order to address the rapid acting aspects of the Npbwrl-pathway, ligands were microinjected into the NAc that activate (NPB) or inhibit (CYM50769) Npbwr1. While NPB is a natural neurotransmitter, CYM50769 is a synthetic ligand, which has not been tested in vivo. […] Doses of 0.1 µM, 1 µM and 10 µM CYM50769 were injected and mice were scored for health markers for 7 days.

[12] = 1nmolar NPB or 1 µmolar CYM50769 microinfused into NAc, tissue collected 24 h later

Q: Which results are given for “NPB: natural agonist of Npbwr1, a natural neurotransmitter; short biologically active peptide (#CSB-MP015971HU-100, Cusabio)”?
A: Per2 (circadian gene) (Per2): not affected; also recorded: did not alter; Bdnf (Bdnf; [12]): decreases Bdnf; also recorded: altered Bdnf-levels; also recorded: opposing effect on Bdnf; behavioral effects of CVS (mice [1]): not enhancing the behavioral effects of CVS further; depressive-like behaviors (mice [1]): elicited depressive-like behaviors; also recorded: increased depressive-like behaviors; also recorded: mimicked chronic stress effects; Forced swim test, immobility time (mice [2]): increases immobility time; Splash test, grooming (mice [3]): may reduce grooming; feeding (mouse brain): induced hyperphagia after 2 h, followed by hypophagia; Sucrose preference, ratio of sucrose solution consumed (mice [4]; naive mice): reduce the ratio of sucrose solution consumed

Q: What does the source list for Cn1c(=O)c2c(ncn2C)n(C)c1=O [caffeine]?
A: Npbwr1 levels (Npbwr1; 24h after caffeine injection, dark phase): decreased; also recorded: reduced; Npbwr1 expression (Npbwr1; WT mice, 2h after caffeine injection, end of the dark phase): increased; CVS-induced changes in NAc dendritic spines (NAc dendritic spines; females, 24h after caffeine injection): reversed by caffeine back to naive levels; Cumulative head diameter (NAc dendritic spines; females, CVS, 24h after caffeine): reversed; CVS-induced spine changes (NAc dendritic spines; males, CVS, caffeine): partially reversed; Cumulative head diameter (NAc dendritic spines; males, CVS, caffeine): reversed; amplitude of circadian oscillations (circadian genes): may slightly flatten the amplitude; mood-elevating effects (mice [5]): only occurred in the active (dark) phase; stress-induced behavioral changes (mice [6]): reversed; also recorded: improved stress-induced behavioral changes; Escape behaviors (mice [7]): altered; caffeine-induced transcriptional changes [8]: biggest effect of caffeine occurs in WT in the active phase; also recorded: occurred in WT in the active (dark) phase

Q: With COc1ccc(Oc2c(Cl)cnn(C3c4ccccc4-c4ccccc43)c2=O)cc1 [CYM50769] as the compound, how does the “Per2 (circadian gene)” value (Per2) read?
A: Its value is “not affected; also recorded: did not alter”.

Q: What about the “Forced swim test, CVS-effects” value (mice [9]) of the same compound?
A: The value was “blocks CVS-effects”.

Q: And the Bdnf (Bdnf; [12])?
A: The Bdnf was “increases Bdnf; also recorded: altered Bdnf-levels”.

Q: What about the Bdnf (Bdnf; 1 µmolar CYM50769 microinfused into NAc, single dose, tissue collected 7 days later) of the same compound?
A: The Bdnf was “persists at the 7 day time point”.

Q: What about the Bdnf (Bdnf; 1 µmolar CYM50769 microinfused into NAc, single dose, tissue collected 7 days later, listed as CYM5069) of the same compound?
A: The Bdnf was “altered Bdnf levels starting at 24h for up to 7 days”.

Q: And the “behavioral effects of CVS” value (mice [1])?
A: Its value is “rescued CVS-effects; also recorded: blocked those”.

Q: And the “behavioral effects of CVS” value (mice [1]; listed as CYM5069)?
A: Its value is “reversed effects of chronic stress on behavior”.

Q: What about the depressive-like behaviors (mice [1]) of the same compound?
A: Its depressive-like behaviors is “no effects”.

Q: And the “Splash test, CVS-effects” value (mice [10])?
A: Its value is “blocks CVS-effects”.

Q: And the “Bcl2 (apoptosis marker)” value (Bcl2)?
A: Its value is “No effect; also recorded: Neither NPB nor CYM50769 affected”.

Q: What about the “Casp3 (apoptosis marker)” value (Casp3) of the same compound?
A: The value was “does not alter; also recorded: Neither NPB nor CYM50769 affected”.

Q: What about the “selectivity and tolerability of an acute dose” value (mice [11]) of the same compound?
A: Its value is “selective and well tolerated”.

Q: And the “Sucrose preference, CVS-effects” value (mice [4])?
A: The value was “rescues CVS-effects”.
